Data taken from US10681909B2, “Herbicidal triazoles” (FMC Corporation, priority 2014, dated 2020).

How the values were obtained:
[1] = system: surinam grass; assay: Test E preemergence; assay type: in vivo, Brachiaria decumbens; conditions: scale 0 to 100
Description: (§1) Seeds of plant species selected from corn (Zea mays), soybean (Glycine max), lambsquarters (Chenopodium album), poinsettia, wild (wild poinsettia, Euphorbia heterophylla), pigweed, palmer (palmer pigweed, Amaranthus palmeri), waterhemp (common waterhemp, Amaranthus rudis), surinam grass (Brachiaria decumbens), crabgrass, large (large crabgrass, Digitaria sanguinalis), crabgrass, Brazilian (Brazilian crabgrass, Digitaria horizontalis), panicum, fall (fall panicum, Panicum dichotomiflorum), foxtail, giant (giant foxtail, Setaria faberii), foxtail, green (green foxtail, Setaria viridis), goosegrass (Eleusine indica), johnsongrass (Sorghum halepense), ragweed (common ragweed, Ambrosia elatior), barnyardgrass (Echinochloa crus-galli), sandbur (southern sandbur, Cenchrus echinatus), arrowleaf sida (Sida rhombifolia), ryegrass, Italian (Italian ryegrass, Lolium multiflorum), dayflower, VA (Virginia dayflower, Commelina virginica), field bindweed (Convolvulus arvensis), cocklebur (common cocklebur, Xanthium strumarium), morningglory (Ipomoea coccinea), nightshade (eastern black nightshade, Solanum ptycanthum), kochia (Kochia scoparia), nutsedge, yellow (yellow nutsedge, Cyperus esculentus), smartweed (ladysthumb smartweed, Polygonum persicaria), velvetleaf (Abutilon theophrasti), horseweed (Conyza canadensis), and beggarticks (hairy beggarticks, Bidens pilosa), were planted into a silt loam soil and treated preemergence with test chemicals formulated in a non-phytotoxic solvent mixture which included a surfactant.
(§2) At the same time, plants from these crop and weed species and also waterhemp_RES1, (ALS & Triazine resistant common waterhemp, Amaranthus rudis), and waterhemp_RES2, (ALS & HPPD resistant common waterhemp, Amaranthus rudis) were planted in pots containing Sunshine Redi-Earth® planting medium comprising spaghnum peat moss, vermiculite, starter nutrients and dolomitic limestone were treated with postemergence applications of test chemicals formulated in the same manner. Plants ranged in height from 2 to 18 cm for postemergence treatments (1- to 4-leaf stage). Treated plants and controls were maintained in a greenhouse for 14 to 21 d, after which time all species were compared to controls and visually evaluated. Plant response ratings, summarized in Table E, are based on a scale of 0 to 100 where 0 is no effect and 100 is complete control. A dash (-) response means no test result.

[2] = system: field bindweed; assay: Test E preemergence; assay type: in vivo, Convolvulus arvensis; conditions: scale 0 to 100
Description: as §1, §2

[3] = system: ragweed; assay: Test E preemergence; assay type: in vivo, Ambrosia elatior; conditions: scale 0 to 100
Description: as §1, §2

[4] = system: waterhemp; assay: Test E preemergence; assay type: in vivo, Amaranthus rudis; conditions: scale 0 to 100
Description: as §1, §2

[5] = system: velvetleaf; assay: Test E preemergence; assay type: in vivo, Abutilon theophrasti; conditions: scale 0 to 100
Description: as §1, §2

[6] = system: barnyardgrass; assay: Test E preemergence; assay type: in vivo, Echinochloa crus-galli; conditions: scale 0 to 100
Description: as §1, §2

[7] = system: beggarticks; assay: Test E preemergence; assay type: in vivo, Bidens pilosa; conditions: scale 0 to 100
Description: as §1, §2

[8] = system: wheat (winter wheat); assay: Test C preemergence; assay type: in vivo, Triticum aestivum; conditions: for Wheat plant response rating (0 to 100): Preemergence, visual rating after 13 to 15 d; for Plant response rating (scale of 0 to 100 where 0 is no effect and 100 is complete control): Wheat, preemergence, 250 g ai/ha
Description: Seeds of plant species selected from blackgrass (Alopecurus myosuroides), ryegrass, Italian (Italian ryegrass, Lolium multiflorum), wheat (winter wheat, Triticum aestivum), galium (catchweed bedstraw, Galium aparine), corn (Zea mays), crabgrass, large (large crabgrass, Digitaria sanguinalis), foxtail, giant, (giant foxtail, Setaria faberii), johnsongrass (Sorghum halepense), lambsquarters (Chenopodium album), morningglory (Ipomoea coccinea), nutsedge, yellow (yellow nutsedge, Cyperus esculentus), pigweed (Amaranthus retroflexus), ragweed (common ragweed, Ambrosia elatior), soybean (Glycine max), barnyardgrass (Echinochloa crus-galli), oilseed rape (Brassica napus), waterhemp (common waterhemp, Amaranthus rudis), and velvetleaf (Abutilon theophrasti) were planted into a blend of loam soil and sand and treated preemergence with test chemicals formulated in a non-phytotoxic solvent mixture which included a surfactant. At the same time, plants selected from these crop and weed species and also chickweed (common chickweed, Stellaria media), oat, wild (wild oat, Avena fatua), and kochia (Kochia scoparia), were planted in pots containing Sunshine Redi-Earth® planting medium comprising spaghnum peat moss, vermiculite, starter nutrients and dolomitic limestone and treated with postemergence applications of test chemicals formulated in the same manner. Plants ranged in height from 2 to 18 cm (1- to 4-leaf stage) for postemergence treatments. […] A dash (-) response means no test result.

[9] = system: foxtail, giant; assay: Test E preemergence; assay type: in vivo, Setaria faberii; conditions: scale 0 to 100
Description: as §1, §2

[10] = system: ryegrass, Italian; assay: Test E preemergence; assay type: in vivo, Lolium multiflorum; conditions: scale 0 to 100
Description: as §1, §2

[11] = system: beggarticks; assay: Test E postemergence; assay type: in vivo, Bidens pilosa; conditions: scale 0 to 100
Description: as §1, §2

[12] = system: waterhemp_RES1 (ALS & Triazine resistant common waterhemp); assay: Test E postemergence; assay type: in vivo, Amaranthus rudis; conditions: scale 0 to 100
Description: as §1, §2

[13] = system: waterhemp; assay: Test E postemergence; assay type: in vivo, Amaranthus rudis; conditions: scale 0 to 100
Description: as §1, §2

[14] = system: waterhemp_RES2 (ALS & HPPD resistant common waterhemp); assay: Test E postemergence; assay type: in vivo, Amaranthus rudis; conditions: scale 0 to 100
Description: as §1, §2

[15] = system: ryegrass, Italian; assay: Test E postemergence; assay type: in vivo, Lolium multiflorum; conditions: scale 0 to 100
Description: as §1, §2

`CCCc1nc(-c2ccc(F)cc2)nn1Cc1ccnc(C(F)(F)F)c1` [Compound 6, 4-[[3-(4-fluorophenyl)-5-propyl-1H-1,2,4-triazol-1-yl]methyl]-2-(trifluoromethyl)pyridine] gave a Plant response rating ([1]; 16 g ai/ha) of 20, a Plant response rating ([1]; 31 g ai/ha) of 40 and a Plant response rating ([1]; 62 g ai/ha) of 40. For the same compound, the Plant response rating ([1]; 125 g ai/ha) was 50, the Plant response rating ([1]; 250 g ai/ha) was 50 and the Plant response rating ([2]; 16 g ai/ha) was 10. For the same compound, the Plant response rating ([2]; 31 g ai/ha) was 10, the Plant response rating ([2]; 62 g ai/ha) was 30 and the Plant response rating ([2]; 125 g ai/ha) was 50. The Plant response rating ([2]; 250 g ai/ha) was 70, the Plant response rating ([3]; 16 g ai/ha) was 10 and the Plant response rating ([3]; 31 g ai/ha) was 20. For the same compound, the Plant response rating ([3]; 62 g ai/ha) was 20, the Plant response rating ([3]; 125 g ai/ha) was 50 and the Plant response rating ([3]; 250 g ai/ha) was 90. It also gave a Plant response rating ([4]; 31 g ai/ha) of 80, a Plant response rating ([4]; 62 g ai/ha) of 100 and a Plant response rating ([4]; 125 g ai/ha) of 100. It also gave a Plant response rating ([4]; 250 g ai/ha) of 100, a Plant response rating ([5]; 16 g ai/ha) of 0 and a Plant response rating ([5]; 31 g ai/ha) of 30. For the same compound, the Plant response rating ([5]; 62 g ai/ha) was 40, the Plant response rating ([5]; 125 g ai/ha) was 50 and the Plant response rating ([5]; 250 g ai/ha) was 70. For the same compound, the Plant response rating ([6]; 16 g ai/ha) was 10, the Plant response rating ([6]; 31 g ai/ha) was 40 and the Plant response rating ([6]; 62 g ai/ha) was 50. It also gave a Plant response rating ([6]; 125 g ai/ha) of 60, a Plant response rating ([6]; 250 g ai/ha) of 75 and a Plant response rating ([7]; 16 g ai/ha) of 0. For the same compound, the Plant response rating ([7]; 31 g ai/ha) was 0, the Plant response rating ([7]; 62 g ai/ha) was 0 and the Plant response rating ([7]; 125 g ai/ha) was 20. The Plant response rating ([7]; 250 g ai/ha) was 70, the “Wheat plant response rating (0 to 100)” value ([8]; 31 g ai/ha) was 0 and the “Wheat plant response rating (0 to 100)” value ([8]; 62 g ai/ha) was 10. For the same compound, the “Plant response rating (scale of 0 to 100 where 0 is no effect and 100 is complete control)” value [8] was 60, the Plant response rating ([9]; 16 g ai/ha) was 50 and the Plant response rating ([9]; 62 g ai/ha) was 60. The Plant response rating ([9]; 125 g ai/ha) was 95, the Plant response rating ([9]; 250 g ai/ha) was 100 and the Plant response rating ([10]; 16 g ai/ha) was 10. The Plant response rating ([10]; 31 g ai/ha) was 40, the Plant response rating ([10]; 62 g ai/ha) was 50 and the Plant response rating ([10]; 125 g ai/ha) was 70. It also gave a Plant response rating ([10]; 250 g ai/ha) of 80.

In the case of `CCOc1nc(-c2ccc(C(F)(F)F)cc2)nn1Cc1ccnc(C(F)(F)F)c1` [Compound 35, 4-[[5-ethoxy-3-[4-(trifluoromethyl)phenyl]-1H-1,2,4-triazole-1-yl]methyl]-2-(trifluoromethyl)pyridine], the “Wheat plant response rating (0 to 100)” value ([8]; 31 g ai/ha) is reported as 5, the “Wheat plant response rating (0 to 100)” value ([8]; 62 g ai/ha) is reported as 5 and the “Plant response rating (scale of 0 to 100 where 0 is no effect and 100 is complete control)” value [8] is reported as 35.

With `FC(F)(F)COc1nc(-c2ccc(Cl)cc2)nn1Cc1ccnc(C(F)(F)F)c1` [Compound 31] the “Wheat plant response rating (0 to 100)” value ([8]; 31 g ai/ha) was 0, the “Wheat plant response rating (0 to 100)” value ([8]; 62 g ai/ha) was 5 and the “Plant response rating (scale of 0 to 100 where 0 is no effect and 100 is complete control)” value [8] was 35.

`CCOc1nc(-c2ccc(F)cc2)nn1Cc1ccnc(C(F)(F)F)c1` [Compound 8, 4-[[5-ethoxy-3-(4-fluorophenyl)-1H-1,2,4-triazol-1-yl]methyl]-2-(trifluoromethyl)pyridine] showed a Plant response rating ([1]; 62 g ai/ha) of 50, a Plant response rating ([1]; 125 g ai/ha) of 75 and a Plant response rating ([2]; 62 g ai/ha) of 70. It also gave a Plant response rating ([2]; 125 g ai/ha) of 95, a Plant response rating ([3]; 62 g ai/ha) of 80 and a Plant response rating ([3]; 125 g ai/ha) of 90. For the same compound, the Plant response rating ([4]; 62 g ai/ha) was 100, the Plant response rating ([4]; 125 g ai/ha) was 100 and the Plant response rating ([5]; 62 g ai/ha) was 50. The Plant response rating ([5]; 125 g ai/ha) was 98, the Plant response rating ([6]; 62 g ai/ha) was 75 and the Plant response rating ([6]; 125 g ai/ha) was 95. The Plant response rating ([7]; 62 g ai/ha) was 20, the Plant response rating ([7]; 125 g ai/ha) was 20 and the “Wheat plant response rating (0 to 100)” value ([8]; 31 g ai/ha) was 35. For the same compound, the “Wheat plant response rating (0 to 100)” value ([8]; 62 g ai/ha) was 45, the “Plant response rating (scale of 0 to 100 where 0 is no effect and 100 is complete control)” value [8] was 80 and the Plant response rating ([9]; 62 g ai/ha) was 100. It also gave a Plant response rating ([9]; 125 g ai/ha) of 100, a Plant response rating ([10]; 62 g ai/ha) of 65 and a Plant response rating ([10]; 125 g ai/ha) of 100.

For `FC(F)(F)COc1nc(-c2ccccc2)nn1Cc1ccnc(C(F)(F)F)c1` [Compound 24], the “Wheat plant response rating (0 to 100)” value ([8]; 31 g ai/ha) was 0, the “Wheat plant response rating (0 to 100)” value ([8]; 62 g ai/ha) was 0 and the “Plant response rating (scale of 0 to 100 where 0 is no effect and 100 is complete control)” value [8] was 5.

In the case of `COc1nc(-c2ccc(F)cc2)nn1Cc1ccnc(C(F)(F)F)c1` [Compound 9, 4-[[3-(4-fluorophenyl)-5-methoxy-1H-1,2,4-triazol-1-yl]methyl]-2-(trifluoromethyl)pyridine], the “Wheat plant response rating (0 to 100)” value ([8]; 31 g ai/ha) is reported as 0, the “Wheat plant response rating (0 to 100)” value ([8]; 62 g ai/ha) is reported as 5 and the “Plant response rating (scale of 0 to 100 where 0 is no effect and 100 is complete control)” value [8] is reported as 25.

In the case of `COc1nc(-c2ccccc2)nn1Cc1ccnc(C(F)(F)F)c1` [Compound 32], the “Wheat plant response rating (0 to 100)” value ([8]; 31 g ai/ha) is reported as 0, the “Wheat plant response rating (0 to 100)” value ([8]; 62 g ai/ha) is reported as 0 and the “Plant response rating (scale of 0 to 100 where 0 is no effect and 100 is complete control)” value [8] is reported as 0.

Compound `COc1nc(-c2ccc(Cl)cc2)nn1Cc1ccnc(C(F)(F)F)c1` [Compound 28] has a Plant response rating ([11]; 31 g ai/ha) of 50, a Plant response rating ([11]; 62 g ai/ha) of 60 and a Plant response rating ([11]; 125 g ai/ha) of 50. It also gave a Plant response rating ([11]; 250 g ai/ha) of 60, a Plant response rating ([12]; 31 g ai/ha) of 95 and a Plant response rating ([12]; 62 g ai/ha) of 95. It also gave a Plant response rating ([12]; 125 g ai/ha) of 95, a Plant response rating ([12]; 250 g ai/ha) of 95 and a Plant response rating ([13]; 31 g ai/ha) of 90. It also gave a Plant response rating ([13]; 62 g ai/ha) of 90, a Plant response rating ([13]; 125 g ai/ha) of 95 and a Plant response rating ([13]; 250 g ai/ha) of 95. The Plant response rating ([14]; 31 g ai/ha) was 95, the Plant response rating ([14]; 62 g ai/ha) was 90 and the Plant response rating ([14]; 125 g ai/ha) was 90. For the same compound, the Plant response rating ([14]; 250 g ai/ha) was 95, the Plant response rating ([15]; 31 g ai/ha) was 10 and the Plant response rating ([15]; 62 g ai/ha) was 20. It also gave a Plant response rating ([15]; 125 g ai/ha) of 25 and a Plant response rating ([15]; 250 g ai/ha) of 30.
